Reference: PubChem BioAssay AID248 (DTP/NCI, 2004)
Values joined by “and” are separate entries in the source; they are usually repeats but may differ in a detail not shown here. Equal entries are not always repeated. Inconclusive results and toxic doses are left out. No stated cut-off is given here; in the data, active means T/C of 150% or more; inactive means T/C below 125%.

Test system: L1210 leukemia ip in BDF1 mice, survival T/C
Assay: NCI In Vivo Anticancer Drug Screen. Data for tumor model L1210 Leukemia (intraperitoneal) in B6D2F1 (BDF1) mice
Settings: endpoint: mean survival time, higher = longer survival
In short: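 Antitumor effect is assessed in tumor-bearing animals. Survival in the compound arm is compared with a vehicle-dosed control arm and expressed as their quotient.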

[1] = dose: 100.0 mg/kg/injection, schedule: Q04DX002 (ip), vehicle: Klucel (hydroxypropylcellulose) (HPC)
[2] = dose: 200.0 mg/kg/injection, schedule: Q04DX002 (ip), vehicle: Klucel (hydroxypropylcellulose) (HPC)
[3] = dose: 400.0 mg/kg/injection, schedule: Q04DX002 (ip), vehicle: Klucel (hydroxypropylcellulose) (HPC)
[4] = dose: 100.0 mg/kg/injection, schedule: Q01DX009 (ip), vehicle: Klucel (hydroxypropylcellulose) (HPC)
[5] = dose: 100.0 mg/kg/injection, schedule: Q04DX003 (ip), vehicle: Klucel (hydroxypropylcellulose) (HPC)
[6] = dose: 100.0 mg/kg/injection, schedule: Q04DX003 (ip), vehicle: saline with Tween-80
[7] = dose: 200.0 mg/kg/injection, schedule: Q04DX003 (ip), vehicle: saline with Tween-80
[8] = dose: 400.0 mg/kg/injection, schedule: Q04DX003 (ip), vehicle: saline with Tween-80

Measured: T/C

CC(SCc1ccccc1)C(=O)O (configuration not stated)
inactive: dose: 100.0 mg/kg/injection, schedule: Q01DX001 (ip), vehicle: saline 97 % of control | dose: 200.0 mg/kg/injection, schedule: Q01DX001 (ip), vehicle: saline 94 % of control | dose: 400.0 mg/kg/injection, schedule: Q01DX001 (ip), vehicle: saline 92 % of control

O=C(O)c1cc(S(=O)(=O)O)cc(Br)c1O
inactive: [1] 95 % of control | [2] 103 % of control | [3] 89 % of control

N#Cc1cn(C2OC(CO)C(O)C2O)c2ncn3ccnc3c12 (configuration not stated)
inactive: dose: 100.0 mg/kg/injection, schedule: Q04DX003 (ip), vehicle: water 116 % of control | dose: 200.0 mg/kg/injection, schedule: Q04DX003 (ip), vehicle: water 113 % of control and 117 % of control | dose: 300.0 mg/kg/injection, schedule: Q04DX003 (ip), vehicle: water 121 % of control | dose: 500.0 mg/kg/injection, schedule: Q04DX003 (ip), vehicle: water 107 % of control

C(=C(\C[P+](c1ccccc1)(c1ccccc1)c1ccccc1)c1ccccc1)/c1ccccc1
inactive: dose: 5.0 mg/kg/injection, schedule: Q01DX009 (ip), vehicle: saline with Tween-80 97 % of control | dose: 5.0 mg/kg/injection, schedule: Q04DX003 (ip), vehicle: saline with Tween-80 93 % of control | dose: 20.0 mg/kg/injection, schedule: Q04DX003 (ip), vehicle: saline with Tween-80 86 % of control

C(=P(c1ccccc1)(c1ccccc1)c1ccccc1)[P+](c1ccccc1)(c1ccccc1)c1ccccc1.[Cl][Fe]([Cl])([Cl])[Br]
inactive: dose: 0.39 mg/kg/injection, schedule: Q01DX009 (ip), vehicle: Klucel (hydroxypropylcellulose) (HPC) 119 % of control | dose: 0.78 mg/kg/injection, schedule: Q01DX009 (ip), vehicle: Klucel (hydroxypropylcellulose) (HPC) 112 % of control | dose: 1.56 mg/kg/injection, schedule: Q01DX009 (ip), vehicle: Klucel (hydroxypropylcellulose) (HPC) 97 % of control and 102 % of control

Cc1ccc(N=Nc2ccc(C)cc2NC(=O)Nc2cc([N+](=O)[O-])ccc2C)cc1
inactive: [1] 92 % of control | [2] 101 % of control | [3] 111 % of control

Cc1cccc2cc3c(ccc4ccccc43)c[n+]12
inactive: dose: 2.0 mg/kg/injection, schedule: Q01DX015 (ip), vehicle: carboxymethylcellulose (CMC) 101 % of control | dose: 4.0 mg/kg/injection, schedule: Q01DX015 (ip), vehicle: carboxymethylcellulose (CMC) 108 % of control | dose: 5.0 mg/kg/injection, schedule: Q04DX003 (ip), vehicle: Klucel (hydroxypropylcellulose) (HPC) 106 % of control | dose: 6.25 mg/kg/injection, schedule: Q01DX009 (ip), vehicle: saline with Tween-80 98 % of control | dose: 6.25 mg/kg/injection, schedule: Q04DX003 (ip), vehicle: saline 93 % of control | dose: 8.0 mg/kg/injection, schedule: Q01DX015 (ip), vehicle: carboxymethylcellulose (CMC) 105 % of control | dose: 10.0 mg/kg/injection, schedule: Q04DX003 (ip), vehicle: Klucel (hydroxypropylcellulose) (HPC) 103 % of control | dose: 12.5 mg/kg/injection, schedule: Q01DX001 (ip), vehicle: saline 98 % of control | dose: 12.5 mg/kg/injection, schedule: Q01DX009 (ip), vehicle: saline with Tween-80 115 % of control | dose: 12.5 mg/kg/injection, schedule: Q04DX003 (ip), vehicle: saline 97 % of control | dose: 20.0 mg/kg/injection, schedule: Q04DX003 (ip), vehicle: Klucel (hydroxypropylcellulose) (HPC) 100 % of control | dose: 25.0 mg/kg/injection, schedule: Q01DX001 (ip), vehicle: saline 97 % of control | dose: 25.0 mg/kg/injection, schedule: Q04DX003 (ip), vehicle: saline 97 % of control | dose: 40.0 mg/kg/injection, schedule: Q04DX003 (ip), vehicle: Klucel (hydroxypropylcellulose) (HPC) 97 % of control | dose: 80.0 mg/kg/injection, schedule: Q04DX003 (ip), vehicle: Klucel (hydroxypropylcellulose) (HPC) 100 % of control

CCC1=C/C(=C/c2cccc(OC)c2O)C(=O)S1
inactive: dose: 100.0 mg/kg/injection, schedule: Q01DX001 (ip), vehicle: saline with Tween-80 97 % of control | dose: 200.0 mg/kg/injection, schedule: Q01DX001 (ip), vehicle: saline with Tween-80 97 % of control | dose: 400.0 mg/kg/injection, schedule: Q01DX001 (ip), vehicle: saline with Tween-80 87 % of control

CCC(=O)N/N=C(\N)N[N+](=O)[O-]
inactive: dose: 87.5 mg/kg/injection, schedule: Q04DX003 (ip), vehicle: Klucel (hydroxypropylcellulose) (HPC) 102 % of control | dose: 175.0 mg/kg/injection, schedule: Q04DX003 (ip), vehicle: Klucel (hydroxypropylcellulose) (HPC) 105 % of control | dose: 350.0 mg/kg/injection, schedule: Q04DX003 (ip), vehicle: Klucel (hydroxypropylcellulose) (HPC) 103 % of control

Cc1ccc(C)c(CN(C)C)c1O
inactive: dose: 6.0 mg/kg/injection, schedule: Q04DX003 (ip), vehicle: Klucel (hydroxypropylcellulose) (HPC) 98 % of control | dose: 12.5 mg/kg/injection, schedule: Q04DX003 (ip), vehicle: Klucel (hydroxypropylcellulose) (HPC) 96 % of control | dose: 25.0 mg/kg/injection, schedule: Q04DX003 (ip), vehicle: Klucel (hydroxypropylcellulose) (HPC) 89 % of control | dose: 50.0 mg/kg/injection, schedule: Q01DX009 (ip), vehicle: Klucel (hydroxypropylcellulose) (HPC) 97 % of control | dose: 50.0 mg/kg/injection, schedule: Q04DX003 (ip), vehicle: Klucel (hydroxypropylcellulose) (HPC) 107 % of control | [4] 89 % of control | [5] 100 % of control and 89 % of control

FC(F)(F)c1nc[nH]c1C(F)(F)F
inactive: dose: 6.25 mg/kg/injection, schedule: Q01DX009 (ip), vehicle: water 103 % of control | dose: 12.5 mg/kg/injection, schedule: Q01DX009 (ip), vehicle: water 97 % of control | dose: 25.0 mg/kg/injection, schedule: Q01DX009 (ip), vehicle: water 97 % of control

C[Si](C)(C)Oc1cccc(O[Si](C)(C)C)c1
inactive: [6] 95 % of control | [7] 96 % of control | [8] 93 % of control

BrC1=C(Br)CCCC1
inactive: dose: 100.0 mg/kg/injection, schedule: Q04DX003 (ip), vehicle: saline 91 % of control | dose: 200.0 mg/kg/injection, schedule: Q04DX003 (ip), vehicle: saline 91 % of control | dose: 400.0 mg/kg/injection, schedule: Q04DX003 (ip), vehicle: saline 93 % of control

O=C(N(CCc1ccc(O)cc1)Cc1ccc2c(c1)OCO2)C(F)(F)F
inactive: dose: 100.0 mg/kg/injection, schedule: Q04DX003 (ip), vehicle: gum acacia 91 % of control | dose: 200.0 mg/kg/injection, schedule: Q04DX003 (ip), vehicle: gum acacia 91 % of control | dose: 400.0 mg/kg/injection, schedule: Q04DX003 (ip), vehicle: gum acacia 88 % of control

COC(=O)c1c(Cl)c(Cl)c(Cl)c(Cl)c1C(=O)OC
inactive: [4] 96 % of control | dose: 100.0 mg/kg/injection, schedule: Q01DX009 (ip), vehicle: saline with Tween-80 96 % of control | [5] 95 % of control | [6] 100 % of control | dose: 200.0 mg/kg/injection, schedule: Q01DX009 (ip), vehicle: Klucel (hydroxypropylcellulose) (HPC) 102 % of control | dose: 200.0 mg/kg/injection, schedule: Q01DX009 (ip), vehicle: saline with Tween-80 91 % of control | dose: 200.0 mg/kg/injection, schedule: Q04DX003 (ip), vehicle: Klucel (hydroxypropylcellulose) (HPC) 96 % of control | [7] 100 % of control | dose: 400.0 mg/kg/injection, schedule: Q01DX009 (ip), vehicle: Klucel (hydroxypropylcellulose) (HPC) 107 % of control | dose: 400.0 mg/kg/injection, schedule: Q04DX003 (ip), vehicle: Klucel (hydroxypropylcellulose) (HPC) 95 % of control

Cn1cc(NC(=O)c2cc(NC(=O)CN=C(N)N)cn2C)cc1C(=O)NCCC(=N)N
inactive: dose: 6.3 mg/kg/injection, schedule: Q01DX Z (ip), vehicle: saline 88 % of control | dose: 12.5 mg/kg/injection, schedule: Q01DX Z (ip), vehicle: saline 92 % of control

O=[As](O)(O[As](=O)(O)c1ccccc1)c1ccccc1
inactive: dose: 5.0 mg/kg/injection, schedule: Q01DX001 (ip), vehicle: saline 103 % of control | dose: 10.0 mg/kg/injection, schedule: Q01DX001 (ip), vehicle: saline 103 % of control | dose: 20.0 mg/kg/injection, schedule: Q01DX001 (ip), vehicle: saline 103 % of control | dose: 40.0 mg/kg/injection, schedule: Q01DX001 (ip), vehicle: saline 101 % of control

CC(C)(C)c1ccc(OS(=O)(=O)c2cccc([N+](=O)[O-])c2)cc1
inactive: [6] 104 % of control | [7] 99 % of control | [8] 106 % of control

O=c1n(CCCl)c(=O)n(CCCl)c(=O)n1CCCl
inactive: dose: 50.0 mg/kg/injection, schedule: Q04DX003 (ip), vehicle: saline with Tween-80 103 % of control | [6] 88 % of control | [7] 96 % of control and 87 % of control | [8] 98 % of control
